Measured values: US20260234159A1, “SMALL MOLECULE TREATMENT OF FATTY LIVER DISEASE AND HCC” (SCANDIEDGE THERAPEUTICS AB, priority 2023, published 2026)

Assays:
[1] = tested on: HepG2 cells; assay: Mitochondrial membrane potential assay (TMRE); format: cell-based, human; settings: 10 μM, one day
Procedure, shortened: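 HepG2 cells treated with compounds at the chosen concentration and time, then assayed with kits for TMRE, autophagy, DCFDA ROS or lipid peroxidation. Fluorescence intensity measured from ROI in images or by microplate reader in triplicate (GFP Ex480/Em530 nm, RFP Ex549/Em574 nm).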

[2] = tested on: HepG2 cells; assay: Invasion assay (transwell); format: cell-based, human; settings: Homo sapiens, HepG2, 24 hr, read-out: invasiveness reduced by
Procedure, shortened: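 HepG2 cells (100,000) in serum-free medium with compounds placed on collagen-coated 8 μm transwell membranes, with 10% FBS medium below as attractant. After one day at 37 °C, cells fixed in formaldehyde and stained with crystal violet. Invaded cells on the outer membrane imaged and counted.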

[3] = In vivo toxicological study in rats: plasma chemistry; design: species or system rats of the Wistar strain; settings: plasma
Description: Forty-two male and forty-two female rats of the Wistar strain were allocated to the study. Three groups of three males and three females were given doses of 30, 100 and 300 mg/kg of target compounds (Table 8). The vehicle was 1.5 w/w % HPMC, 1.5 w/w % PS80 in 10 mM PBS, pH 7 and dose volume were 5 mL/kg. The animals were acclimatised at least 14 day prior to the study and exposed to a 12 hours light, 12 hours dark light cycle. The formulations were administered via oral gavage. Administration occurred once daily in the morning for seven consecutive days. Blood for scheduled haematology and plasma chemistry were taken at necropsy. For plasma chemistry, 0.6 ml blood (lithium heparin) per animal and for haematology, 0.5 ml blood (K2EDTA) per animal. The blood and plasma were analysed using Exigo analyzer and Vetscan equipment. Blood samples were kept in room temperature […] after collection and mixing. The blood samples were analysed as whole blood within 60 min of collection. The VetScan analyser was calibrated with calibration samples of known plasma levels of each parameter before start of analysis, occasionally during the analysis period of study samples and after completed analyses (Table 10).

[4] = Sex/Group F/8, 30-300 mg/kg of SET159
[5] = Sex/Group F/9, 30-300 mg/kg of SET159
[6] = Sex/Group F/10, 30-300 mg/kg of SET159
[7] = Sex/Group M/8, 30-300 mg/kg of SET159
[8] = Sex/Group M/9, 30-300 mg/kg of SET159
[9] = Sex/Group M/10, 30-300 mg/kg of SET159
[10] = Sex/Group F/11, 30-300 mg/kg of SET171
[11] = Sex/Group F/12, 30-300 mg/kg of SET171
[12] = Sex/Group F/13, 30-300 mg/kg of SET171
[13] = Sex/Group M/11, 30-300 mg/kg of SET171
[14] = Sex/Group M/12, 30-300 mg/kg of SET171
[15] = Sex/Group M/13, 30-300 mg/kg of SET171

SMILES: N#Cc1c(NC(=O)c2cccc3ccccc23)sc2c1CCN(C(=O)Nc1ccccc1OC(F)(F)F)C2 [PKL-A159]
- mitochondrial membrane potential [1]: significantly decreased
- inhibition at 1 µM [2]: 77.8%
- ALB [3, 4]: 56 g/L
- ALP [3, 4]: 179 U/L
- ALT [3, 4]: 22 U/L
- AMY [3, 4]: 541 U/L
- BUN [3, 4]: 6.2 mmol/L
- CA [3, 4]: 2.76 mmol/L
- CRE [3, 4]: 39 µmol/L
- GLOB [3, 4]: 9 g/L
- GLU [3, 4]: 7.8 mmol/L
- K+ [3, 4]: 4.9 mmol/L
- NA+ [3, 4]: 139 mmol/L
- PHOS [3, 4]: 2.59 mmol/L
- TBIL [3, 4]: 4.0 µmol/L
- TP [3, 4]: 65 g/L
- ALB [3, 5]: 57 g/L
- ALP [3, 5]: 135 U/L
- ALT [3, 5]: 21 U/L
- AMY [3, 5]: 542 U/L
- BUN [3, 5]: 5.1 mmol/L
- CA [3, 5]: 2.88 mmol/L
- CRE [3, 5]: 46 µmol/L
- GLOB [3, 5]: 8 g/L
- GLU [3, 5]: 7.0 mmol/L
- K+ [3, 5]: 4.4 mmol/L
- NA+ [3, 5]: 139 mmol/L
- PHOS [3, 5]: 2.65 mmol/L
- TBIL [3, 5]: 4.3 µmol/L
- TP [3, 5]: 65 g/L
- ALB [3, 6]: 53 g/L
- ALP [3, 6]: 175 U/L
- ALT [3, 6]: 23 U/L
- AMY [3, 6]: 481 U/L
- BUN [3, 6]: 4.8 mmol/L
- CA [3, 6]: 2.89 mmol/L
- CRE [3, 6]: 40 µmol/L
- GLOB [3, 6]: 9 g/L
- GLU [3, 6]: 7.8 mmol/L
- K+ [3, 6]: 4.7 mmol/L
- NA+ [3, 6]: 139 mmol/L
- PHOS [3, 6]: 2.80 mmol/L
- TBIL [3, 6]: 4.0 µmol/L
- TP [3, 6]: 62 g/L
- ALB [3, 7]: 49 g/L
- ALP [3, 7]: 274 U/L
- ALT [3, 7]: 25 U/L
- AMY [3, 7]: 719 U/L
- BUN [3, 7]: 5.9 mmol/L
- CA [3, 7]: 2.94 mmol/L
- CRE [3, 7]: 29 µmol/L
- GLOB [3, 7]: 11 g/L
- GLU [3, 7]: 8.0 mmol/L
- K+ [3, 7]: 5.0 mmol/L
- NA+ [3, 7]: 141 mmol/L
- PHOS [3, 7]: 2.44 mmol/L
- TBIL [3, 7]: 4.0 µmol/L
- TP [3, 7]: 60 g/L
- ALB [3, 8]: 47 g/L
- ALP [3, 8]: 324 U/L
- ALT [3, 8]: 30 U/L
- AMY [3, 8]: 823 U/L
- BUN [3, 8]: 6.8 mmol/L
- CA [3, 8]: 2.99 mmol/L
- CRE [3, 8]: 36 µmol/L
- GLOB [3, 8]: 16 g/L
- GLU [3, 8]: 8.8 mmol/L
- K+ [3, 8]: 5.0 mmol/L
- NA+ [3, 8]: 141 mmol/L
- PHOS [3, 8]: 2.43 mmol/L
- TBIL [3, 8]: 4.3 µmol/L
- TP [3, 8]: 63 g/L
- ALB [3, 9]: 50 g/L
- ALP [3, 9]: 284 U/L
- ALT [3, 9]: 24 U/L
- AMY [3, 9]: 806 U/L
- BUN [3, 9]: 6.1 mmol/L
- CA [3, 9]: 3.02 mmol/L
- CRE [3, 9]: 47 µmol/L
- GLOB [3, 9]: 13 g/L
- GLU [3, 9]: 7.9 mmol/L
- K+ [3, 9]: 4.8 mmol/L
- NA+ [3, 9]: 142 mmol/L
- PHOS [3, 9]: 2.42 mmol/L
- TBIL [3, 9]: 4.3 µmol/L
- TP [3, 9]: 62 g/L

SMILES: N#Cc1c(NC(=O)c2cccc3ccccc23)sc2c1CCN(CC(=O)Nc1cccc(Br)c1)C2 [PKL-B171]
- mitochondrial membrane potential [1]: significantly decreased
- inhibition at 1 µM [2]: 21.4%
- ALB [3, 10]: 61 g/L
- ALP [3, 10]: 114 U/L
- ALT [3, 10]: 21 U/L
- AMY [3, 10]: 527 U/L
- BUN [3, 10]: 6.0 mmol/L
- CA [3, 10]: 2.90 mmol/L
- CRE [3, 10]: 45 µmol/L
- GLOB [3, 10]: 8 g/L
- GLU [3, 10]: 7.8 mmol/L
- K+ [3, 10]: 4.4 mmol/L
- NA+ [3, 10]: 138 mmol/L
- PHOS [3, 10]: 2.33 mmol/L
- TBIL [3, 10]: 5.3 µmol/L
- TP [3, 10]: 70 g/L
- ALB [3, 11]: 57 g/L
- ALP [3, 11]: 126 U/L
- ALT [3, 11]: 21 U/L
- AMY [3, 11]: 570 U/L
- BUN [3, 11]: 6.5 mmol/L
- CA [3, 11]: 2.92 mmol/L
- CRE [3, 11]: 38 µmol/L
- GLOB [3, 11]: 9 g/L
- GLU [3, 11]: 7.7 mmol/L
- K+ [3, 11]: 4.5 mmol/L
- NA+ [3, 11]: 137 mmol/L
- PHOS [3, 11]: 2.42 mmol/L
- TBIL [3, 11]: 5.0 µmol/L
- TP [3, 11]: 66 g/L
- ALB [3, 12]: 56 g/L
- ALP [3, 12]: 145 U/L
- ALT [3, 12]: 21 U/L
- AMY [3, 12]: 550 U/L
- BUN [3, 12]: 6.3 mmol/L
- CA [3, 12]: 2.89 mmol/L
- CRE [3, 12]: 39 µmol/L
- GLOB [3, 12]: 11 g/L
- GLU [3, 12]: 7.9 mmol/L
- K+ [3, 12]: 4.5 mmol/L
- NA+ [3, 12]: 139 mmol/L
- PHOS [3, 12]: 2.64 mmol/L
- TBIL [3, 12]: 4.0 µmol/L
- TP [3, 12]: 67 g/L
- ALB [3, 13]: 51 g/L
- ALP [3, 13]: 260 U/L
- ALT [3, 13]: 26 U/L
- AMY [3, 13]: 810 U/L
- BUN [3, 13]: 5.3 mmol/L
- CA [3, 13]: 2.97 mmol/L
- CRE [3, 13]: 47 µmol/L
- GLOB [3, 13]: 12 g/L
- GLU [3, 13]: 7.8 mmol/L
- K+ [3, 13]: 4.3 mmol/L
- NA+ [3, 13]: 140 mmol/L
- PHOS [3, 13]: 2.83 mmol/L
- TBIL [3, 13]: 4.3 µmol/L
- TP [3, 13]: 62 g/L
- ALB [3, 14]: 52 g/L
- ALP [3, 14]: 248 U/L
- ALT [3, 14]: 35 U/L
- AMY [3, 14]: 846 U/L
- BUN [3, 14]: 6.2 mmol/L
- CA [3, 14]: 3.04 mmol/L
- CRE [3, 14]: 35 µmol/L
- GLOB [3, 14]: 12 g/L
- GLU [3, 14]: 7.7 mmol/L
- K+ [3, 14]: 4.6 mmol/L
- NA+ [3, 14]: 140 mmol/L
- PHOS [3, 14]: 3.04 mmol/L
- TBIL [3, 14]: 4.3 µmol/L
- TP [3, 14]: 64 g/L
- ALB [3, 15]: 50 g/L
- ALP [3, 15]: 263 U/L
- ALT [3, 15]: 25 U/L
- AMY [3, 15]: 808 U/L
- BUN [3, 15]: 6.4 mmol/L
- CA [3, 15]: 2.96 mmol/L
- CRE [3, 15]: 29 µmol/L
- GLOB [3, 15]: 13 g/L
- GLU [3, 15]: 8.4 mmol/L
- K+ [3, 15]: 4.4 mmol/L
- NA+ [3, 15]: 141 mmol/L
- PHOS [3, 15]: 2.94 mmol/L
- TBIL [3, 15]: 5.0 µmol/L
- TP [3, 15]: 63 g/L
